# From US20020041862A1 (priority 1999, published 2002)
# “Also recorded” adds a separate entry of the source.
# What was measured:
# PrP^Sc in ScN2a cells [1] = molecular target: T1, PrP^Sc in ScN2a cells (Mus musculus, UniProt P04925); conditions: cited from earlier work
# PrP^Sc in ScN2a cells [2] = molecular target: T1, PrP^Sc in ScN2a cells; conditions: cited from earlier work; remark: listed apart in the source
# PrP^Sc in ScN2a cells [3] = molecular target: T1, PrP^Sc in ScN2a cells; format: cell-based
# T1 sequence (P04925 23-230 limits assumed): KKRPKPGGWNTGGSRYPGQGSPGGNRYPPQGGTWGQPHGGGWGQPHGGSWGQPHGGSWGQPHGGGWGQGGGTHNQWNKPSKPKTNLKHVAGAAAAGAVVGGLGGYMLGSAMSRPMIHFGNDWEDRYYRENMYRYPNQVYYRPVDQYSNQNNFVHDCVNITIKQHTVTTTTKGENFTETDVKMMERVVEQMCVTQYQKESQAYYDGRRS
Compound,reduction of pre-existing PrP^Sc levels (PrP^Sc in ScN2a cells [1]),formation of PrP^Sc (PrP^Sc in ScN2a cells [2]),effect of lysosomotropic agent on ability of PEI to eliminate PrP^Sc (PrP^Sc in ScN2a cells [3]),effect of lysosomotropic agent alone on PrP^Sc levels (PrP^Sc in ScN2a cells [1])
"C[S+](C)[O-] [DMSO, dimethyl sulfoxide]",cannot reduce pre-existing PrP^Sc levels,inhibit the formation of new PrP^Sc,,
CCN(CC)CCCC(C)Nc1ccnc2cc(Cl)ccc12 (centres unmarked) [chloroquine],,do not interfere with the formation of PrP^Sc,blocked the ability of PEI to eliminate PrP^Sc; also recorded: clear bands for PrP^Sc,have no effect on PrP^Sc levels
OCC(O)CO [glycerol],cannot reduce pre-existing PrP^Sc levels,inhibit the formation of new PrP^Sc,,
CC[C@@]1([C@@H]2O[C@@H]([C@H]3O[C@@](O)(CO)[C@H](C)C[C@@H]3C)C[C@@H]2C)CC[C@H]([C@]2(C)CC[C@]3(C[C@H](O)[C@@H](C)[C@@H]([C@@H](C)[C@@H](OC)[C@H](C)C(=O)O)O3)O2)O1 [monensin],,do not interfere with the formation of PrP^Sc,,
NH4Cl,,do not interfere with the formation of PrP^Sc,failure of NH4Cl to affect PrP^Sc levels; also recorded: barely detectable amounts of PrP^Sc,have no effect on PrP^Sc levels
